In patent US9650616B2, “Methods for increasing grain yield” (University of Florida Research Foundation, Inc., priority 2014, dated 2017):
Where a chain is given by its changes, count along the chain named.

Key:
[1] = biological target: T1, maize endosperm AGPase, large subunit variant GG (Q96G, D161G; numbering of SEQ ID NO: 20) (Zea mays, UniProt P55241+Q84PF5, D161G/Q96G); assay: Apparent kinetic constants with 3-PGA, 37° C., GG; type: biochemical; conditions: read-out: ATP Km
T1 sequence (P55241 46-516 D161G/Q96G): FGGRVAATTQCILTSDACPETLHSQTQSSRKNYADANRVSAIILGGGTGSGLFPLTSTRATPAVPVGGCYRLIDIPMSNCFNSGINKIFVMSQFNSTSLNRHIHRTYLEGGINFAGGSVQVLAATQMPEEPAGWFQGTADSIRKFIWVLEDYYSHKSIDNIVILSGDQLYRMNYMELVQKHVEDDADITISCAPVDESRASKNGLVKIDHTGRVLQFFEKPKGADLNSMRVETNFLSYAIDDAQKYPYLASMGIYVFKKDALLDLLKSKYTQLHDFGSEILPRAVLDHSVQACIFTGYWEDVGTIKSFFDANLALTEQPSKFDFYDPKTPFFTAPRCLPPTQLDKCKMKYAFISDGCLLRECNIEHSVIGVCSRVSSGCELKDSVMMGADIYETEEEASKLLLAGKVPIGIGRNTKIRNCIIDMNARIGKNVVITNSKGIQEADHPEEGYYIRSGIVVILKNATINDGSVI
T1 sequence (Q84PF5 1-474): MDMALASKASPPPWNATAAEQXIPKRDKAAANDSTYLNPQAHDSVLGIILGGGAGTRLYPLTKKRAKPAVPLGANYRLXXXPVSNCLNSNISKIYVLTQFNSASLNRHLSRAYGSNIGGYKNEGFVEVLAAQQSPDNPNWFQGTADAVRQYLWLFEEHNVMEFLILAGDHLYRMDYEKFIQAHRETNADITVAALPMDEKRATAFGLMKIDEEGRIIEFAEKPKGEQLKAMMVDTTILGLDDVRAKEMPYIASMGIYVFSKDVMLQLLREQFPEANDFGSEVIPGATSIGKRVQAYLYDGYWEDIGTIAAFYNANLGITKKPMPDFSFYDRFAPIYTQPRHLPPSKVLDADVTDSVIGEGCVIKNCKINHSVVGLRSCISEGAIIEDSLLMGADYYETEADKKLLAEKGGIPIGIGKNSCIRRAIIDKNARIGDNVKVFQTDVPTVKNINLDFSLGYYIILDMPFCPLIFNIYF
From the text: (§1) The small and large subunit plasmids of maize endosperm AGPase (pMONcBt2 and pMONcSh2, respectively) (Giroux et al., 1996) were expressed in E. coli AC70R1-504 cells (Iglesias et al., 1993) as previously described (Boehlein et al., 2008).
(§2) An endpoint assay was used to determine the rate of the AGPase reaction by coupling the formation of PPi to a decrease in NADH concentration (Boehlein et al., 2008). […] The Michaelis constants (Km) were obtained by varying one substrate in the presence of saturating concentrations of the second substrate. The activation constants were obtained by varying the activator at fixed levels of both substrates. All reactions were performed at 37° C. and mixes were prewarmed before starting the reaction with enzyme. […] The absorbance at 340 nm was monitored after 30 min and the amount of PPi produced was determined from a standard curve using PPi in complete reaction mixtures lacking AGPase. Blank samples contained complete reaction mixtures without enzyme and the change in absorbance between the blank and the reaction was used to calculate the amount of PPi produced. […]
(§3) The apparent Michaelis constant and maximum velocity of each reaction was calculated from a V vs. S plots using nonlinear regression analysis and the following equation, v=VmaxS/(Km+S), where v is the measured velocity, Vmax is the maximum velocity, S is the substrate concentration. […]

[2] = biological target: T2, maize endosperm AGPase, large subunit variant GGRA (Q96G, D161G, A443R, Q289A; numbering of SEQ ID NO: 20) (Zea mays, UniProt P55241+Q84PF5, A443R/D161G/Q289A/Q96G); assay: Apparent kinetic constants with 3-PGA, 37° C., GGRA; type: biochemical; conditions: read-out: ATP Km
T2 sequence (P55241 46-516 A443R/D161G/Q289A/Q96G): T1 sequence (P55241 46-516 D161G/Q96G) with Q244A, A398R
T2 sequence (Q84PF5 1-474): T1 sequence (Q84PF5 1-474)
From the text: as §1, §2, §3

## Nc1ncnc2c1ncn2[C@@H]1O[C@H](COP(=O)(O)OP(=O)(O)OP(=O)(O)O)[C@@H](O)[C@H]1O [ATP]
[1]
  Km: 31 µM
[2]
  Km: 57 µM
